These results are taken from EP0656952B1, “CATIONIC PEPTIDES AND METHOD FOR PRODUCTION” (THE UNIVERSITY OF BRITISH COLUMBIA, priority 1992, dated 1994).

In assay [1] the test system is a number of different bacteria. In words: Minimum inhibitory concentration (MIC), broth dilution. Format: cell-based. The note with it: MIC comparison. How it is done: (§1) The minimum inhibitory concentrations of (MIC) of CEME, CEMA and melittin were determined for a number of different bacteria (Table 2). Briefly, cells were grown overnight at 37°C in LB-S (Luria broth without any salt supplement) and diluted one in 10,000 in the same medium to give concentrations of about 10^4 to 10^5 CFU/ml. The broth dilutions were set up in a 96 well microtiter plate by putting 200µl of LB-S containing the initial concentration of antibiotic or compound in column 1 and 100 µl of the same medium in columns 2-12. The compounds were diluted by taking 100 µl of broth from column 1 and mixing it with column 2, resulting in a one in two dilution. This was continued to column 10. Finally, 10 µl of bacteria were pipetted into columns 1-11, and the plates incubated overnight at 37°C. The next day the plates were scored for growth in the wells, and the MIC determined.

The subject of assay [2] is S. typhimurium defensin sensitive strain (C590). The assay is described as above. Format: cell-based. To be noted: MIC comparison with parent strain. The procedure: as §1
The test system of another assay is P. aeruginosa LPS. In words: Dansyl polymyxin (DPx) displacement assay with purified LPS. Type of assay: binding. To be noted: on a µM basis, compared with polymyxin B. The procedure:
DPx is a derivative of polymyxin that fluoresces strongly when bound to LPS, but weakly when free in solution. In this assay, DPx was incubated with LPS to saturate the binding sites and then, while polycationic compounds are titrated into the reaction, displacement of the DPx was monitored by the decrease in fluorescence (FIGURE 9). P. aeruginosa LPS was isolated as previously described (Darveau, et al., J. of Bacteriology, 155:831, 1983) Dansyl polymyxin was synthesized as described by Schindler, et al., B. Antimicrobial Agents and Chemo, 8:95, 1975.
Briefly, 40 mgs of polymyxin B and 10 mgs of dansyl chloride were mixed in 2 mls of 60 mM NaHC03 and 40% acetone and incubated in the dark for 90 minutes. […] The dansyl polymyxin was resuspended in 5 mM Hepes pH 7.0, quantitated by dinitrophenylation and stored in aliquots at -20°C.
The method of Moore, et al., (Antimicrobial Agents end Chemo., 29:496, 1987), was used to test how much DPx was needed to saturate the binding sties on LPS. Briefly, 5 µl samples of 100 µM DPx were titrated sequentially into 1ml of 3 µg/ml of LPS until a maximum fluorescence was reached. The fluorescence was measured in a Perkin-Elmer 650-10S fluorescence spectrophotometer with an excitation wavelength of 340 nm and an emission wavelength of 485 nm using slit widths of 5 nm. […]

In another assay the test system is E. coli strain DC2. In words: Acid-urea gel overlay antibacterial activity test. Format: cell-based. The note with it: acid-urea gel overlaid with agar containing ≈ 10^5 E. coli strain DC2, overnight at 37°C. The procedure:
A sample of the partially purified CEME protein was electrophoresed on a 15% acid-urea gel, which separates proteins based on charge and mass (Panyim and Chalkey, Arch. Biochem. Biophys., 130:337, 1969). The pH of the buffer is acidic (≈ pH 5.0) and the polarity is reversed such that proteins migrate to the cathode. Therefore, the small cationic peptides run relatively quickly through the gel and thus can be easily identified. Antibacterial activity was tested as previously described (Hultmark, Eur. J. Biochem., 106:7, 1980). The gel was incubated in Mueller Hinton broth + 0.2M NaPO4 pH 7.4 for 1 hr. It was overlaid with 5 mls of the same media containing 0.6% agar and ≈ 10^5 E. coli strain DC2, and then again with 5 ml of the same media containing only 0.6% agar. […] Melittin is used as a positive control due to its antibacterial activity and similarity in size and PI values.

Assay [3] is described as follows: Synergy: MIC of antibiotics in the presence of sub-MIC levels of cationic peptides. Format: cell-based. How it is done: as §1
The ability of the cationic peptides to work synergystically was examined by determining the MIC values for some commonly used antibiotics in the presence of sub-MIC levels of cationic peptides (Table 4). […] This may be due to the high membrane permeabilizing activity of CEMA (see below). However, the peptides did lower the MIC of polymyxin B, possibly due to the fact that they are all taken up by the same pathway and are therefore aiding each other's uptake. […]

The subject of another assay is P. aeruginosa H309. In words: Lysozyme lysis assay (membrane permeabilization). Type of assay: cell-based. To be noted: P. aeruginosa data only. How it is done: Membrane permeabilization by polycationic compounds was measured in two different assays. The first assay measured membrane disruption by the ability of lysozyme to reach the periplasm and cause cell lysis. […] The uptake of tysozyme into whole cells due to membrane permeabilization by various compounds was previously described in Hancock, et al., Antimicrobial Agents and Chemo., 19:777; 1981. Overnight cultures of P. aeruginosa H309 or E. cloacae 218R1 grown in LB-S were diluted 1 in 50 in fresh medium and grown to an OD600 ≈ 0.5-0.6. The cells were harvested in a Silencer H-103N clinical centrifuge at 1800 g for 10 min, washed once with one volume of assay buffer (5 mM HEPES pH 7.2, 5 mM KCN), and resuspended in the same buffer to an OD600 of 0.5. Assays consisted of 600 µl of cells with 50 µg/ml of chicken egg white lysozyme and varying concentrations of cationic compounds. Cell lysis was measured as a decrease in the OD600 in a Perkin-Emmer dual beam spectrophotometer. Parallel experiments performed without lysozyme enabled the measurement of the lytic activity of the compounds themselves. To test whether or not permeability to lysozyme could be inhibited by divalent cations, various concentrations of MgCl2 were added to the assay after the addition of lysozyme and before the addition of the test compound.

For a further assay, the system named is P. aeruginosa. In words: 1-N-phenylnaphthylamine (NPN) uptake assay. Type of assay: cell-based. The note with it: 10 µM NPN, FIGURE 7. The source says: (§2) The second assay determined membrane permeability by the ability of 1-N-phenylnaphthylamine (NPN), a small fluorescent probe, to insert itself into the membrane. Normally, very little NPN can penetrate the outer membrane, but in the presence of a membrane permeabilizer it can insert into the hydrophobic membrane resulting in an increase in fluorescence (FIGURES 7 and 8). This N-phenylnaphthylamine uptake assay was previously described by Loh, et al., Antimicrobial Agents and Chemo., 26:546, 1984. Cells were prepared exactly the same as for the lysozyme lysis assay. 1-N-phenylnaphthylamine (NPN) was dissolved in acetone at a concentration of 500 µM. NPN fluorescence was measured in a Perkin-Elmer 650-10S fluorescent spectrophotometer using excitation and emission wavelengths set to 350 nm and 420 nm respectively, with slit widths of 5 nm. The assay was standardized by adding 20 µl of NPN (final concentration of 10 µM) and 10µl of 0.64 mg/ml of polymyxin B (final concentration of 6.4 µg/ml) into 1 ml of cells, and adjusting the resulting fluorescence to read 90% deflection (90 arbitrary units). Various compounds were tested by adding 10 µl of different concentrations to a cuvette containing 1 ml of cells and 10 µM NPN. Permeabilizing activity was designated as the total fluorescence minus the fluorescence due to NPN alone. Following the fluorescence measurement, the OD600 of the cells was taken to ensure no significant cell lysis had occurred.

For another assay, the system named is E. cloacae. In words: 1-N-phenylnaphthylamine (NPN) uptake assay. Format: cell-based. The note with it: 10 µM NPN, FIGURE 8.
Source text: as §2

On to `CC(C)(O/N=C(\C(=O)N[C@@H]1C(=O)N2C(C(=O)[O-])=C(C[n+]3ccccc3)CS[C@H]12)c1csc(N)n1)C(=O)O` [ceftazidime], for which, in assay [1], the “resistance of the mutant SC9252” value is given as “increased resistance”. The “sensitivity of the S. typhimurium defensin sensitive strain (C590)” value (“sensitivity” for short) in assay [2] is listed as “unchanged”.

In the case of gentamicin, the “sensitivity” value in assay [2] was “two-fold more sensitive”.

As for melittin, the “affinity for LPS (I50)” value in the assay on P. aeruginosa LPS is recorded as “slightly lower affinities”. In assay [2], the “sensitivity” value is “two-fold more sensitive”. In the assay on E. coli strain DC2, the “zones of clearing at the migration site” value is “zones of clearing”. Moreover, the “effect on the MIC of polymyxin B” value in assay [3] was “lower than those in the presence of CEME and CEMA”. The “permeabilizer for lysozyme relative to gentamicin” value in the assay with P. aeruginosa H309 (lysis without lysozyme taken into consideration) is given as 5- to 10 fold. For the same compound, in the assay on P. aeruginosa H309 (increased concentrations of peptide), the “cell lysis in the absence of lysozyme” value is “cell lysis in the absence of lysozyme occurred”. For the same compound, in the assay on P. aeruginosa, the “opening up the membrane to NPN” value is on record as “less active”.

For polymyxin B, the “resistance of the mutant SC9252” value in assay [1] is given as “increased resistance”. Moreover, the “sensitivity” value in assay [2] is reported as “four-fold more sensitive”. Besides, the “opening up the membrane to NPN” value in the assay on E. cloacae and in the assay with P. aeruginosa was “equally active” in each case.
